The results in this text go back to publication PMC8100298, “Histone deacetylase inhibitor resminostat in combination with sorafenib counteracts platelet-mediated pro-tumoral effects in hepatocellular carcinoma” (Scientific Reports, 2021).

Molecules are shown by their SMILES. Read-outs that look alike come from different tables or passages of the source.

In general, EC50 refers to the concentration giving half of the maximal effect.

One assay relates to PLC/PRF/5. Kind of assay: Proliferation assay. Format: cell-based. To be noted: for EC50: Homo sapiens. From the text: (§1) The cell lines HepG2 (ACC180, RRID:CVCL_0027; DMSZ, Braunschweig Germany), SNU-475 (CRL-2236, Lot. 58483227, RRID:CVCL_0497; ATCC, Manassas, Virginia, US), SNU-387 (CRL-2237, Lot. 58483192, RRID:CVCL_0250; ATCC, Virginia, US), PLC/PRF/5 (300315, Lot. 812, RRID:CVCL_0485; CLS Cell Lines Service GmbH, Eppelheim, Germany) and HuH-7 (JCRB0403, Lot. 2272008, RRID:CVCL_0336; JCRB Cell Bank, Japan) were propagated according to the distributor’s guidelines. The authenticity of the cell lines was confirmed by short tandem repeat (STR) analysis (DSMZ, Braunschweig, Germany). Mycoplasma contamination was ruled out by PCR testing. For assays with platelet lysate (PL), FBS was substituted with 10% PLTMax Human Platelet Lysate (Cat. Nr. SCM141, Lot Number VP1602259; Millipore, Burlington, Massachusetts, US). The PL was supplemented with 20 U/ml Heparin (Heparin sodium salt from porcine intestinal mucosa, H4784-250MG; Sigma-Aldrich, Taufkirchen, Germany) to prevent coagulation.
(§2) Prior to the assay, the optimal seeding density was determined for each cell line to obtain an exponential growth during the experiment (2000 to 6000 cells per 96-well). Drug dilution series with 8 concentrations were prepared for EC50 determinations of single drugs. Three wells for each concentration were seeded (technical replicates). For drug combinations, dilution series of six concentrations for each drug alone or in combination at equal ratio were prepared. After 4 h of cell seeding, the drugs were added to the cells. Each 96-well plate contained a vehicle control (0.1% or 0.2% DMSO), a death control Ro 106-9920 (Tocris Cookson Ltd., Bristol, UK) a growth control (untreated cells compared to vehicle treated cells), and blank wells without cells. The proliferation assay was stopped after 4 days by crystal violet staining of the cells (0.5% in 20% methanol). Following extraction of the crystal violet with 8% acetic acid, the eluates were quantified photometrically at 570 nm and the reference wavelength 690 nm in an absorbance microplate reader (Tecan Sunrise; Tecan, Männedorf, Switzerland). Only readouts from 96-well plates with a Z-factor between 0.5 and 1.0 were used. Blank OD values were subtracted from the mean OD values. Nonlinear curve fitting and EC50 calculation was performed with Excel Solver.

In a further assay the test system is SNU-475. Description: Proliferation assay. Format: cell-based. To be noted: for EC50: Homo sapiens, read-out: EC50, anti-proliferative activity of kinase inhibitors.
Text: as §1, §2

A further assay has as its system HuH-7. Description: Proliferation assay. Format: cell-based. The following applies: for EC50: Homo sapiens, 96 h, 4 days.
Text: as §1, §2

In another assay the test system is HepG2. Description: Proliferation assay. Format: cell-based. To be noted: for EC50: Homo sapiens, 96 h, 4 days.
Text: as §1, §2

Another assay relates to SNU-387. Description: Proliferation assay. Format: cell-based. The following applies: SNU-387 vs HepG2, PLC/PRF/5, HuH-7 (Fig. 1F).
Text: as §1, §2

The subject of assay [1] is Hep3B2.1-7 human hepatic carcinoma. An excerpt:
The orthotopic xenograft mouse model of Hep3B2.1–7 human hepatic carcinoma was previously established. Tumors were created by injection of 2.5 × 10^6 Hep3B2.1-7 cells (ATCC, RRID:CVCL_0326; Virginia, Manassas, USA) into the main lobe of the liver of anaesthetized female SCID mice (C.B-17-Igh-1bPrkdc(scid)). […] Treatments were continued for 21 days. Treatment of animals was ceased when the body weight dropped below 85% of that on entry of the study. Only mice culled at the termination date were used to determine the tumor weight. The experiment was conducted by vivoPharm pty Ltd (Bundoora, Australia) in accordance with the principles outlined in the “Australian Code of Practice for the Care and Use of Animals for Scientific Purposes”, 7th Edition, 2004 (National Health and Medical Research Council, Canberra, Australia). All procedures involving animals were reviewed and approved by the University of Adelaide Animal Ethics Committee. The study was carried out in compliance with the ARRIVE guidelines (http://www.nc3rs.org.uk/page.asp?id=1357). […]
invasion assay. The ODs of the invaded cells were normalized relative to ODs from tissue […]
Orthotopic xenograft mouse model
The orthotopic xenograft mouse model of Hep3B2.1-7 human hepatic carcinom a was previously established. The experiment was conducted by vivoPharm pty Ltd (Australia) in accordance with the principles outlined in the Australian Code of Practice for the Care and Use of Animals for Scientific Purposes, 7th Edition, 2004 (National Health and Medical Research Council). Procedures involving the care and use of animals in thi s study were reviewed and approved by the University of Adelaide Animal Ethics Committee. The study was carried out in compliance with the ARRIVE guidelines
(http://www.nc3rs.org.uk/page.asp?id=1357).
The animals were delivered to the test facility 1 1 days prior inoculation. On arrival, all animals received a detailed physical examination, including body weight measurement by the […]
technical staff. […] Each a nimal was identified by a transponder (Bar Code Data Systems Pty Ltd, Botany Bay, NSW, Australia) that could be scanned with a barcode reader (DataMars LabMax I). The transponder was implanted by subcutaneous injection between the shoulder blades while the mouse was under isoflurane-induced anaesthesia. The animals were housed in groups of six in micro-isolator cages (two cages per group). Each cage was clearly labelled with a cage card indicating study number, group, gender, and prescribed dose concentration and dose volume. The animals were kept in a controlled environment (targeted ranges: temperature 21 ± 3°C, humidity 30 -70%, 15 air changes per hour), with a light/dark cycle each of 12 hours, and under barrier (quarantine) conditions. Temperature and relative humidity were monitored continuously. All animals were subjected to the same environmental conditions. A standard certified commercial rodent diet (Rat and Mouse Cubes, Specialty Feeds Pty Ltd, Glen Forrest, WA, Australia) and tap water were provided to the animals ad libitum. Food supply was sterilized by autoclaving, and water […]
supply was sterilized by acidification with hydrochloric acid (pH 2.4-2.7) by Laboratory Animal Services, University of Adelaide (Adelaide, SA, Australia). Additional feed (a nimal seed, Magill Grain Store, Magill, SA, Australia), as well as wet standard feed was provided to all animals from Day 7 onwards, as a measure to minimize body w eight loss. The extent of adverse reaction was assessed during the study and mice were culled if severe adverse […]
The age range of the mice were 12-16 weeks at
Hep3B2.1-7 human hepatic carcinoma cells were sourced from the American Type Culture […]
Collection (ATCC; Virginia, USA).

In assay [2] the test system is PLC/PRF/5 and SNU-475 cells. Description: ELISA for growth factors PDGF-AA, TGF and VEGF. To be noted: tissue culture supernatants, with or without platelets (Fig. S4B). Format: cell-based. How it is done:
A. The growth factors PDGF-AA, TGFβ and VEGF were determined from tissue culture supernatants by ELISA. PLC/PRF/5 and SNU-475 cells were cultured with increasing […]
(1 picture or pasted object on this page, not shown here) […]
amounts of platelets. In parallel, platelets were cultured without cells to determine if the growth factors were platelet derived.
B. ELSIAs for PDGF-AA, TGFβ and VEGF were performed after drug treatment of PC/PRF/5 and SNU-475 cells. Cells were cultured as indicated with or without platelets and treated with resminostat, sorafenib, the drug combination or vehicle control 0.1% DMSO.
Table S1_ EC50 cell line screen
S1D. The cancer cell lines, their tissue origins and the respective EC50 values are shown.
Each cell line was seeded in duplicates.

Setting [3] is: PLC/PRF/5 (Fig. 6B), read-out: EC50, anti-proliferative activity of kinase inhibitors.

On to `C[C@@H](Oc1cc(-c2cnn(C3CCNCC3)c2)cnc1N)c1c(Cl)ccc(F)c1Cl` [crizotinib, Crizotinib], for which the concentration for a half-maximal effect (EC50) in the assay on PLC/PRF/5 (setting [3]) and in the assay with SNU-475 (SNU-475 (Fig. 6B)) was approximately 5 µM throughout.
On to `COc1cc2nccc(Oc3ccc(NC(=O)NC4CC4)c(Cl)c3)c2cc1C(N)=O` [lenvatinib, Lenvatinib], for which the 50% effective concentration (EC50) in the assay with PLC/PRF/5 (setting [3]) was approximately 17 µM. Besides, in the assay on SNU-475 (SNU-475 (Fig. 6B)), the EC50 was more than 25 µM and the “EC50, anti-proliferative activity of kinase inhibitors” value is given as “could not be determined due to a lack of efficacy”.
For `CNC(=O)c1cc(Oc2ccc(NC(=O)Nc3ccc(Cl)c(C(F)(F)F)c3)cc2)ccn1` [sorafenib, Sorafenib], the EC50 in the assay on HuH-7 (HuH-7, fetal bovine serum, read-out: EC50 in FBS) is 4.4 ± 0.9 µM; in the assay with HuH-7 (HuH-7, platelet lysate, absolute EC50, read-out: EC50 in PL, absolute EC50 (*)) it was 14 ± 2.5 µM; in the assay with HepG2 (HepG2, fetal bovine serum, read-out: EC50 in FBS) it was 1.8 ± 0.4 µM; with HepG2 (HepG2, platelet lysate, absolute EC50, read-out: EC50 in PL, absolute EC50 (*)) it was 11.5 ± 1.3 µM; in the assay with PLC/PRF/5 (96 h, PLC/PRF/5, fetal bovine serum, 4 days, read-out: EC50 in FBS), 4.8 ± 0.6 µM; in the assay on PLC/PRF/5 (96 h, PLC/PRF/5, platelet lysate, 4 days, absolute EC50, read-out: EC50 in PL, absolute EC50 (*)) it was 22.1 ± 2.5 µM. The “Ratio PL/FBS” value in the assay on HuH-7 (HuH-7, ratio of PL/FBS EC50s) came to 3.2; in the assay with HepG2 (HepG2, ratio of PL/FBS EC50s), 6.4; in the assay with PLC/PRF/5 (PLC/PRF/5, ratio of PL/FBS EC50s), 4.6. In the assay with PLC/PRF/5 (PLC/PRF/5, platelet lysate vs FBS dose-response curves (Fig. 2A)), the “effect of platelet factors on potency and efficacy” value was “reduced”. Besides, the maximal inhibition result in the assay with PLC/PRF/5 (PLC/PRF/5, platelet lysate, at 25 µM) is on record as “not reached”. In addition, the “EC50 compared to the epithelial cell lines” value in the assay with SNU-475 (SNU-475 vs HepG2, PLC/PRF/5, HuH-7 (Fig. 1F)) is “about three-fold higher”; in the assay on SNU-387, “about three-fold higher”. Besides, the “Tumour weight, Mean” value in assay [1] (40 mg/kg oral once daily, 21 days, SCID mice) amounted to 1.11 g. Further, the “tumor weight compared to the vehicle control” value in assay [1] (daily resminostat 15 and 40 mg/kg, sorafenib 40 mg/kg, or combination (Fig. 1B)) is reported as “significantly reduced tumor weight”. For the same compound, in assay [2], the “growth factors released by platelets or secreted by HCC cells” value is “not consistantly affected”.
